Broadly, the viability is a read-out of living cells in per cent, often relative to untreated cells.

Structures are written as SMILES.

Results on 78 compounds are retold here after publication PMC12040169 (PLOS Biology, 2025).

The nature of the data set: in vitro. As to conditions: human, hela cells, % viability.

As to `C=C(C)CN1CCN(C(=O)c2[nH]c3ccc(OCC)cc3c2C)CC1` [CBK282666], the viability at 28.5 h, 10 µM came out at 96.7%.

Turning to `CCCc1n[nH]c(-c2cc(C(F)(F)F)ccc2F)c1C(=O)OCC` [CBK107231], the viability at 28.5 h, 10 µM was determined as 94.6%.

For `COCCN(Cc1cnn(C)c1)C(=O)Cc1ccccn1` [CBK306576], the viability at 28.5 h, 10 µM came to 112%.

On to `Nc1ccc(Oc2nc(Oc3ccc(N)cc3)c(F)c(Oc3ccc(N)cc3)c2F)cc1` [CBK266397C], for which the viability at 28.5 h, 10 µM came out at 110%.

In the case of `CC(NC(=O)c1c(Cl)c(Cl)c(Cl)c(Cl)c1C(=O)O)c1cccs1` (stereo not drawn) [CBK264722], the viability at 28.5 h, 10 µM was 107%.

`COC(=O)C1=C(C)N(c2cccc(C(F)(F)F)c2)C(=O)/C1=C\c1ccc(C(=O)O)cc1` [CBK265129]: the viability at 28.5 h, 10 µM stood at 92.8%.

For the compound `CC(C)(C)OC(=O)N1CCCC(C(=O)NCCc2ccccn2)C1` (stereo not drawn) [CBK304281], the viability at 28.5 h, 10 µM amounted to 86.5%.

On to `O=C(O)Cc1nnc(CNc2ccc(Cl)cc2)[nH]1` [CBK286651], for which the viability at 28.5 h, 10 µM amounted to 81.7%.

Turning to `CCC(c1c(O)c2ccccc2oc1=O)c1cccc2ccccc12` (stereo not drawn) [CBK016684], the viability at 28.5 h, 10 µM turned out to be 102%.

In the case of `Cc1cc(=O)oc2cc(SCc3ccc(SC(F)(F)F)cc3)ccc12` [CBK002897], the viability at 28.5 h, 10 µM stood at 97.6%.

Regarding `CC1CC(N(C(=O)c2cccc(Br)c2)c2ccccc2)c2ccccc2N1` (stereo not drawn) [CBK262966], the viability at 28.5 h, 10 µM was 96.7%.

In the case of `CN(C(=O)C1CCC1)c1nc2c(s1)CCc1c-2cnn1C` [CBK281931], the viability at 28.5 h, 10 µM worked out at 75.9%.

In the case of `CCCCOc1ccc(NC(=O)NCCc2cccs2)cc1` [CBK045202], the viability at 28.5 h, 10 µM came to 105%.

Regarding `O=C(CSCc1ccc(Cl)cc1)Nc1ccc(O)cc1C(=O)O` [CBK131694], the viability at 28.5 h, 10 µM turned out to be 97.1%.

Take `COCCN(C(=O)c1[nH]c2c(F)cccc2c1C)C1CCN(C)CC1` [CBK307386]: the viability at 28.5 h, 10 µM is 95%.

On to `Cc1ccc(=O)n(CC(=O)N2CCC[C@@H]3NC(=O)c4ccccc4OCCCCC[C@@H]32)n1` [CBK292100], for which the viability at 28.5 h, 10 µM stood at 94%.

Turning to `O=C(CSc1ncccc1C(=O)O)Nc1nnc(Cc2ccccc2)s1` [CBK299835], the viability at 28.5 h, 10 µM stood at 97.1%.

For the compound `N#Cc1ccc(-c2cncc(NC3CCC(O)CC3)n2)cc1` (stereo not drawn) [CBK166007T], the viability at 28.5 h, 10 µM came to 88.2%.

For `CN(C)C(=O)c1cccc(CNc2ncnc3c2cnn3CCC#N)c1` [CBK305955], the viability at 28.5 h, 10 µM turned out to be 88.3%.

For `NS(=O)(=O)c1ccc(NCc2ccccc2OCc2ccccc2F)cc1` [CBK268935], the viability at 28.5 h, 10 µM was 91.8%.

For the compound `O=S(=O)(Cc1ccc(Cl)cc1)N1CCN(Cc2ccc3c(c2)OCO3)CC1` [CBK074827], the viability at 28.5 h, 10 µM was 101%.

Consider `CN(C)CCNCCP(=O)(c1ccccc1)c1ccccc1` [CBK263049], for which the viability at 28.5 h, 10 µM worked out at 104%.

In the case of `Cc1cc(-c2cc3nc(C)c(C)c(O)n3n2)c(C)o1` [CBK284500], the viability at 28.5 h, 10 µM amounted to 90.4%.

Consider `Cc1cc(N2CCOC(c3nc(C)n[nH]3)C2)c2ccc(F)c(F)c2n1` (stereo not drawn) [CBK306018], for which the viability at 28.5 h, 10 µM turned out to be 92.2%.

As to `CCCC(=O)N(C)C(CO)c1cc(OC)ccc1Br` (stereo not drawn) [CBK304694], the viability at 28.5 h, 10 µM stood at 95.4%.

In the case of `CC(=O)N1CCC2(C/C=C/C[C@H]3CN(CC(N)=O)CC[C@H]3NC(=O)CNC2=O)CC1` [CBK292148], the viability at 28.5 h, 10 µM stood at 97.6%.

Turning to `CC(=O)N1CC[C@H]2NC(=O)CNC(=O)C3(CCCC[C@H]2C1)CCN(C(=O)CCn1ccnc1)CC3` [CBK292138], the viability at 28.5 h, 10 µM was 111%.

For the compound `O=C(NC[C@H]1CC[C@H](C(=O)O)CC1)c1cc2ccccc2[nH]1` [CBK287069], the viability at 28.5 h, 10 µM was 105%.

Regarding `COc1ccc2c(c1)C(C(C(=O)O)C(=O)O)c1ccccc1O2` (stereo not drawn) [CBK266435], the viability at 28.5 h, 10 µM came to 93.8%.

As for `CCn1cnc2cc(NC(=O)CC(C)n3nc(C)cc3C)ccc21` (stereo not drawn) [CBK281401], the viability at 28.5 h, 10 µM was determined as 94.8%.

Regarding `CCn1ncc(CN2CCN(C(=O)c3nn(C)cc3C(=O)O)CC2)c1C` [CBK286870], the viability at 28.5 h, 10 µM came to 89.3%.

On to `CCC(=O)N1CCCCC1c1nn(C)cc1-c1onc(C)c1C` (stereo not drawn) [CBK283411], for which the viability at 28.5 h, 10 µM was 80.5%.

Take `Cc1cc(C[C@@H]2COC[C@H]2NCc2cccc(Cl)c2)on1` [CBK284885]: the viability at 28.5 h, 10 µM turned out to be 89.9%.

For `CC(C)CC(NC(=O)C1CCC(C)CC1)C(=O)O` (stereo not drawn) [CBK287212], the viability at 28.5 h, 10 µM was 88.2%.

For the compound `N#Cc1nc(COc2ccc(Br)cc2)oc1NC1CC1` [CBK266470], the viability at 28.5 h, 10 µM came out at 94.6%.

Take `CC(Oc1ccc(Cl)cc1Cl)C(=O)NC(=S)Nc1ccc2c(c1)C(=O)N(C)C2=O` (stereo not drawn) [CBK267356]: the viability at 28.5 h, 10 µM stood at 93.9%.

Take `O=C(Cc1cc(Cl)ccc1C(F)(F)F)NCCc1c[nH]c2ccc(Cl)cc12` [CBK159759]: the viability at 28.5 h, 10 µM is 80.2%.

For `CCCNC(=O)C1(Cc2ccccc2-c2cccs2)CCN(C(=O)c2ccccc2)CC1` [CBK285694], the viability at 28.5 h, 10 µM was 95%.

For `O=C(COc1ccccc1)Nc1nnc[nH]1` [CBK263898], the viability at 28.5 h, 10 µM was 108%.

Turning to `OCc1ccc(-c2nccnc2NCc2cccc(C(F)(F)F)c2)cc1` [CBK037076], the viability at 28.5 h, 10 µM was found to be 114%.

`COc1ccc2c(Cl)c(C(=O)NCCc3ccc(S(N)(=O)=O)cc3)sc2c1` [CBK268120]: the viability at 28.5 h, 10 µM is 104%.

As to `COCCN(Cc1ccc(OC)cc1)c1c(C)nc2ccc(C(=O)Nc3ccc(NC(C)=O)cc3)cn12` [CBK146111], the viability at 28.5 h, 10 µM worked out at 99.3%.

As to `COc1ccc(CCNC(=O)N2CCCC(CO)C2)cc1` (stereo not drawn) [CBK156059], the viability at 28.5 h, 10 µM came out at 87.1%.

`CCOc1ccc(N2C(=O)/C(=C/c3ccc(Br)cc3)C(=O)NC2=S)cc1` [CBK263305]: the viability at 28.5 h, 10 µM (bulk resorufin, single well) worked out at 92.7%.

On to `CC(NC(=O)c1ncoc1-c1ccccc1)c1ccccn1` (stereo not drawn) [CBK283889], for which the viability at 28.5 h, 10 µM was 92.6%.

Take `O=C(CCC1CCCCC1)N1CCC(c2n[nH]cc2C(=O)N2CCc3ccccc3C2)CC1` [CBK286271]: the viability at 28.5 h, 10 µM turned out to be 95.4%.

On to `O=C(COc1ccc2oc3c(c2c1)CCCC3)Nc1cccc2cccnc12` [CBK266137], for which the viability at 28.5 h, 10 µM stood at 101%.

In the case of `Cc1noc(C)c1S(=O)(=O)Nc1ccccc1C(=O)O` [CBK042371], the viability at 28.5 h, 10 µM was 89.8%.

`COc1cccc(C(=O)N2CCN(C(=O)Nc3ccc(C(F)(F)F)cc3)CC2)c1` [CBK154788]: the viability at 28.5 h, 10 µM was 96.4%.

As for `COc1ccc(CC(=O)Nc2cccc(-c3ccc4c(c3)COC3(CCNCC3)O4)c2)cc1F` [CBK115913], the viability at 28.5 h, 10 µM (bulk resorufin, single well) was 86.5%.

For `c1ccc2c(-c3ccc4c(c3)COC3(CCNCC3)O4)cccc2c1` [CBK060951], the viability at 28.5 h, 10 µM (bulk resorufin, single well) amounted to 92.5%.

Turning to `C[C@H](NC(=O)N1CCC(c2nc(-c3ccccc3)c3ccccn23)CC1)c1ccccc1` [CBK047086], the viability at 28.5 h, 10 µM came out at 92.7%.

Take `c1ccc2c(Sc3cc(N4CCCC4)ncn3)cccc2c1` [CBK089538]: the viability at 28.5 h, 10 µM was 94.2%.

For the compound `Cc1ccc(NC(=O)OCC(F)(F)C(F)F)cc1Cl` [CBK026548], the viability at 28.5 h, 10 µM is 93.1%.

Take `CCOc1cc2c(cc1CN(Cc1ccc3c(c1)OCO3)CC(C)O)CCC2` (stereo not drawn) [CBK286474]: the viability at 28.5 h, 10 µM stood at 87.2%.

Take `O=C(CN1CCN(S(=O)(=O)N2CCCCC2)CC1)Nc1ccc(Br)cc1` [CBK269515]: the viability at 28.5 h, 10 µM was determined as 91.7%.

As for `CCn1cc(C(=O)N2CCC(C(=O)O)CC2)c(=O)c2cc3c(cc21)OCO3` [CBK286713], the viability at 28.5 h, 10 µM was 111%.

Turning to `O=C(Cc1cn2ccsc2n1)NCCS(=O)(=O)N1CCc2ccccc21` [CBK304282], the viability at 28.5 h, 10 µM is 75.4%.

For `CCCC(=O)N1CCCCC1c1c(-c2onc(C)c2C)cnn1C` (stereo not drawn) [CBK282259], the viability at 28.5 h, 10 µM stood at 94.7%.

For `Cc1ccc2[nH]c(SC(C)C(=O)N3CCOCC3)nc2c1` (stereo not drawn) [CBK306187], the viability at 28.5 h, 10 µM was 96%.

In the case of `Cc1ccc(-c2nnc(CN3C(=O)C4(CC(=O)N(C)C4=O)c4cc(F)ccc43)o2)cc1` (stereo not drawn) [CBK075453], the viability at 28.5 h, 10 µM turned out to be 110%.

Consider `CN(Cc1ccc(-c2ccc(S(C)(=O)=O)cc2)nc1)C1CCN(C(=O)CC(F)(F)F)CC1` [CBK164098T], for which the viability at 28.5 h, 10 µM stood at 99.3%.

Consider `O=C(O)[C@H]1CN(C(=O)c2cccs2)C[C@@H]1c1ccccc1F` [CBK283819], for which the viability at 28.5 h, 10 µM is 87.1%.

Consider `CN1CCN(S(=O)(=O)c2ccc(C(C)(C)C)cc2)CC1` [CBK051237], for which the viability at 28.5 h, 10 µM was found to be 106%.

Consider `COc1cccc(NC(=O)c2ccc(N(C)Cc3ccccc3)c([N+](=O)[O-])c2)c1` [CBK267827], for which the viability at 28.5 h, 10 µM turned out to be 95.1%.

Take `Cc1cc(COc2cc(N3CCCNCC3)ncn2)no1` [CBK085462]: the viability at 28.5 h, 10 µM came out at 95.4%.

With `O=C(O)CCC1C(=O)CCC1(C(=O)O)c1ccccc1` (stereo not drawn) [CBK287208], the viability at 28.5 h, 10 µM is 108%.

In the case of `CCC(CO)Nc1cncc(-c2cccc(/C=C/C(=O)O)c2)n1` (stereo not drawn) [CBK065569], the viability at 28.5 h, 10 µM was 114%.

With `Nc1ccc(C(=O)Oc2ccc(Oc3ccccc3)cc2)cc1` [CBK083570], the viability at 28.5 h, 10 µM worked out at 90.5%.

On to `CC(=O)c1ccc(NC(=O)N[C@H]2CCN3C(=O)[C@H]4CCCN4C(=O)[C@H]23)cc1` [CBK289228], for which the viability at 28.5 h, 10 µM was found to be 108%.

As for `O=C1/C(=N\Nc2ccc([N+](=O)[O-])cc2[N+](=O)[O-])c2cc(Br)ccc2N1CN1CCCCC1` [CBK260927], the viability at 28.5 h, 10 µM amounted to 110%.

For `COCCN(Cc1nccs1)C(=O)C1CCc2nn(C)c(=O)n2C1` (stereo not drawn) [CBK306506], the viability at 28.5 h, 10 µM was determined as 103%.

Turning to `OCc1ccc(-n2ncc(-c3ccc(C(F)(F)F)cc3)n2)cc1` [CBK112696], the viability at 28.5 h, 10 µM was 94.6%.

With `NC(=O)c1cn[nH]c1C1CCCCN1Cc1cccc2c1CCOC2` (stereo not drawn) [CBK304745], the viability at 28.5 h, 10 µM was determined as 83.1%.

With `COc1ccc(-c2sc(C(=O)O)c(C)c2C#N)cc1` [CBK019922], the viability at 28.5 h, 10 µM was determined as 101%.

For the compound `Cc1ccc(-c2ccc(N3CCN(C)CC3)nc2)cc1C` [CBK036937], the viability at 28.5 h, 10 µM amounted to 93.7%.

With `Cc1nc2c(c(=O)[nH]1)CC[C@@H]1CN(C(=O)c3ccccc3F)C[C@H]21` [CBK284410], the viability at 28.5 h, 10 µM came out at 92.7%.

Turning to `Clc1ccc(-n2ncc3c(NCc4ccccc4)ncnc32)cc1` [CBK287355], the viability at 28.5 h, 10 µM turned out to be 95.1%.
